# Reference: US9283213B2, “Dihydropyridin-2(1H)-one compounds as S-nitrosoglutathione reductase inhibitors and neurokinin-3 receptor antagonists” (N30 Pharmaceuticals, Inc., priority 2010, dated 2016)
# Assays:
# [1] = Mouse pharmacokinetic (PK) study; format: in vivo; conditions: plasma, male BALB/c mice, PO 10 mg/kg vs IV 2 mg/kg, read-out: oral bioavailability (% F)
# From the text: The mouse is used to determine the pharmacokinetics of compounds of the invention. This species is widely used to assess the bioavailability of compounds by administering both oral (PO) and intravenous (IV) test articles. Efficacy of the compounds of the invention are compared by assessing plasma exposure in male BALB/c mice either via IV or PO administration at the times of peak activity.
# Compounds of the invention are reconstituted in a phosphate buffered saline (PBS)/10% Solutol (HS 15) clear solution resulting in a concentration of 0.2 mg/mL and administered to mice (2 mg/kg) as a single IV dose. Animals dosed via the lateral tail vein. […] The plasma is transferred into labeled polypropylene tubes and frozen at −70° C. until analyzed by LC/MS/MS.
# The compounds of the invention are reconstituted in 40% Propylene Glycol/40% Propylene Carbonate/20% of a 5% Sucrose clear solution resulting in a concentration of 2 mg/mL and administered to mice (10 mg/kg) as a single oral dose via gavage. […] The plasma is transferred into labeled polypropylene tubes and frozen at −70° C. until analyzed by LC/MS/MS.
# Plasma samples at each timepoint were analyzed using a LC-MS/MS with a lower limit of quantification (LLOQ) of 1 ng/mL. […]
# In addition to the above PK parameters, bioavailability (% F) was calculated.
# [2] = target: T1, GSNOR (Homo sapiens, UniProt P11766); assay: GSNOR assay (inhibition of GSNOR activity in vitro); format: biochemical; conditions: 0.240 mM GSNO, 0.300 mM NADH, pH 7.4, 25° C.; read-out: GSNOR inhibitor IC50
# T1 construct: made in house; host or cells: E. coli
# T1 sequence (P11766 whole entry): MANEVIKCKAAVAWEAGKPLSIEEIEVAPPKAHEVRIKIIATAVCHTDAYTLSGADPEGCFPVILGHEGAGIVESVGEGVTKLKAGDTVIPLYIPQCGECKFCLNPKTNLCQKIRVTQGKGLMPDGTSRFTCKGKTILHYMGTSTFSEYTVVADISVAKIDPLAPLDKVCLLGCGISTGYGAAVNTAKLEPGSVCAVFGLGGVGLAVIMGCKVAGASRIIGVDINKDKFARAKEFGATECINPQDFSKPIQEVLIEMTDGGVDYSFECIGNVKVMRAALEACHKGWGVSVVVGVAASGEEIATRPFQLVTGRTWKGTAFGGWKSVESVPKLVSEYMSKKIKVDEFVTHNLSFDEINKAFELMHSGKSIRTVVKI
# Experimental: Various compounds were tested in vitro for their ability to inhibit GSNOR activity.
# Pre-cultures were grown from stabs of a GSNOR glycerol stock in 2XYT media containing 100 ug/ml ampicillin after an overnight incubation at 37° C. Cells were then added to fresh 2XYT (4 L) containing ampicillin and grown to an OD (A600) of 0.6-0.9 at 37° C. before induction. GSNOR expression was induced with 0.1% arabinose in an overnight incubation at 20° C.
# E. coli cell paste was lysed by nitrogen cavitation and the clarified lysate purified by Ni affinity chromatography on an AKTA FPLC (Amersham Pharmacia). The column was eluted in 20 mM Tris pH 8.0/250 mM NaCl with a 0-500 mM imidazole gradient. […] GSNOR was recovered in the flowthrough fraction and for crystallography is further purified by Q-Sepharose and Heparin flowthrough chromatography in 20 mM Tris pH 8.0, 1 mM DTT, 10 uM ZnSO4.
# GSNO and Enzyme/NADH Solutions are made up fresh each day. The Solutions are filtered and allowed to warm to room temperature. GSNO Solution: 100 mM NaPO4 (pH 7.4), 0.480 mM GSNO. 396 μL of GSNO Solution is added to a cuvette followed by 8 μL of test compound in DMSO (or DMSO only for full reaction control) and mixed with the pipette tip. Compounds to be tested are made up at a stock concentration of 10 mM in 100% DMSO. 2 fold serial dilutions are done in 100% DMSO. 8 μL of each dilution are added to an assay so that the final concentration of DMSO in the assay is 1%. The concentrations of compounds tested range from 100 to 0.003 μM. Enzyme/NADH Solution: 100 mM NaPO4 (pH 7.4), 0.600 mM NADH, 1.0 μg/mL GSNO Reductase. 396 μL of the Enzyme/NADH Solution is added to the cuvette to start the reaction. The cuvette is placed in the Cary 3E UV/Visible Spectrophotometer and the change in 340 nm absorbance/min at 25° C. is recorded for 3 minutes. The assays are done in triplicate for each compound concentration. IC50's for each compound are calculated using the standard curve analysis in the Enzyme Kinetics Module of SigmaPlot.
# Final assay conditions: 100 mM NaPO4, pH 7.4, 0.240 mM GSNO, 0.300 mM NADH, 0.5 μg/mL GSNO Reductase and 1% DMSO. Final volume: 800 μL/cuvette.
smiles,measurement,setting,value
"O=C1CC(c2ccc(C(=O)O)c(O)c2)C(c2ccccc2)=C(c2ccccc2)N1 (centres unmarked) [Example 6, 2-hydroxy-4-(2-oxo-5,6-diphenyl-1,2,3,4-tetrahydropyridin-4-yl)benzoic acid]",bioavailability,[1],22%
same,IC50,[2],< 100 nM
